Results taken from the supplement of paper PMC10307832.

Tests used:
Assay in all cases: relative viability (nuclei count vs DMSO), 5 days (fraction); higher = more cells survive
CAL-12T = tested on: CAL-12T
Outline: (§1)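 One day after seeding in 1536-well plates, lung cancer cell lines were dosed by pin tool. Dosing was either single-drug or a fixed anchor-drug dose plus five library-drug doses (not always all listed) in √10 steps. After 5 days, nuclei were stained in one fix-and-stain step and counted on 4× images, and relative viability is the nuclei count of treated wells over that of vehicle wells, given as the median of duplicate plates.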

COR-L 105 = tested on: COR-L 105
Outline: as §1

EKVX = tested on: EKVX
Outline: as §1

EMC-BAC-2 = tested on: EMC-BAC-2
Outline: as §1

H3255 = tested on: H3255
Outline: as §1

LC-2-ad = tested on: LC-2-ad
Outline: as §1

LK-2 = tested on: LK-2
Outline: as §1

LXF-289 = tested on: LXF-289
Outline: as §1

NCI-H1395 = tested on: NCI-H1395
Outline: as §1

NCI-H1437 = tested on: NCI-H1437
Outline: as §1

NCI-H1651 = tested on: NCI-H1651
Outline: as §1

NCI-H1755 = tested on: NCI-H1755
Outline: as §1

NCI-H1793 = tested on: NCI-H1793
Outline: as §1

NCI-H1915 = tested on: NCI-H1915
Outline: as §1

NCI-H1944 = tested on: NCI-H1944
Outline: as §1

NCI-H2085 = tested on: NCI-H2085
Outline: as §1

NCI-H2087 = tested on: NCI-H2087
Outline: as §1

NCI-H2228 = tested on: NCI-H2228
Outline: as §1

NCI-H2347 = tested on: NCI-H2347
Outline: as §1

NCI-H661 = tested on: NCI-H661
Outline: as §1

PC-3 [JPC-3] = tested on: PC-3 [JPC-3]
Outline: as §1

SK-LU-1 = tested on: SK-LU-1
Outline: as §1

SK-MES-1 = tested on: SK-MES-1
Outline: as §1

Q: For `O=c1[nH]c2ccccc2n1C1CCN(CCCC(c2ccc(F)cc2)c2ccc(F)cc2)CC1` [Pimozide] + CS(=O)(=O)CCNCc1ccc(-c2ccc3ncnc(Nc4ccc(OCc5cccc(F)c5)c(Cl)c4)c3c2)o1 [Lapatinib] (partner 2 µM), which relative viability (CAL-12T; first compound 0.08 µM) is on record?
A: 0.57

Q: And the relative viability (CAL-12T; first compound 0.253 µM)?
A: 0.588

Q: And the relative viability (CAL-12T; first compound 0.8 µM)?
A: 0.551

Q: What about the relative viability (CAL-12T; first compound 2.53 µM) of the same molecule?
A: 0.538

Q: And the relative viability (CAL-12T; first compound 8 µM)?
A: 0.625

Q: What about the relative viability (COR-L 105; first compound 0.253 µM) of the same molecule?
A: 0.395

Q: And the relative viability (COR-L 105; first compound 0.8 µM)?
A: 0.377

Q: And the relative viability (COR-L 105; first compound 2.53 µM)?
A: 0.396

Q: What about the relative viability (COR-L 105; first compound 8 µM) of the same molecule?
A: 0.351

Q: And the relative viability (EKVX; first compound 0.253 µM)?
A: 0.177

Q: What about the relative viability (EKVX; first compound 0.8 µM) of the same molecule?
A: 0.221

Q: What about the relative viability (EKVX; first compound 2.53 µM) of the same molecule?
A: 0.216

Q: What about the relative viability (EKVX; first compound 8 µM) of the same molecule?
A: 0.464

Q: What about the relative viability (EMC-BAC-2; first compound 0.08 µM) of the same molecule?
A: 0.865

Q: And the relative viability (EMC-BAC-2; first compound 0.253 µM)?
A: 0.832

Q: And the relative viability (EMC-BAC-2; first compound 0.8 µM)?
A: 0.843

Q: What about the relative viability (EMC-BAC-2; first compound 2.53 µM) of the same molecule?
A: 0.885

Q: What about the relative viability (EMC-BAC-2; first compound 8 µM) of the same molecule?
A: 0.868

Q: And the relative viability (H3255; first compound 0.253 µM)?
A: 0.281

Q: What about the relative viability (H3255; first compound 0.8 µM) of the same molecule?
A: 0.266

Q: What about the relative viability (H3255; first compound 2.53 µM) of the same molecule?
A: 0.229

Q: What about the relative viability (H3255; first compound 8 µM) of the same molecule?
A: 0.254

Q: And the relative viability (LC-2-ad; first compound 0.08 µM)?
A: 0.943

Q: What about the relative viability (LC-2-ad; first compound 0.253 µM) of the same molecule?
A: 0.918

Q: What about the relative viability (LC-2-ad; first compound 0.8 µM) of the same molecule?
A: 0.918

Q: What about the relative viability (LC-2-ad; first compound 2.53 µM) of the same molecule?
A: 0.949

Q: What about the relative viability (LC-2-ad; first compound 8 µM) of the same molecule?
A: 0.6

Q: And the relative viability (LK-2; first compound 0.08 µM)?
A: 0.851

Q: What about the relative viability (LK-2; first compound 0.253 µM) of the same molecule?
A: 0.842

Q: What about the relative viability (LK-2; first compound 0.8 µM) of the same molecule?
A: 0.731

Q: What about the relative viability (LK-2; first compound 2.53 µM) of the same molecule?
A: 0.78

Q: What about the relative viability (LK-2; first compound 8 µM) of the same molecule?
A: 1.13

Q: What about the relative viability (LXF-289; first compound 0.08 µM) of the same molecule?
A: 0.863

Q: What about the relative viability (LXF-289; first compound 0.253 µM) of the same molecule?
A: 0.937

Q: And the relative viability (LXF-289; first compound 0.8 µM)?
A: 0.882

Q: And the relative viability (LXF-289; first compound 2.53 µM)?
A: 0.87

Q: And the relative viability (LXF-289; first compound 8 µM)?
A: 0.829

Q: What about the relative viability (NCI-H1395; first compound 0.08 µM) of the same molecule?
A: 0.966

Q: And the relative viability (NCI-H1395; first compound 0.253 µM)?
A: 1.17

Q: And the relative viability (NCI-H1395; first compound 0.8 µM)?
A: 1.06

Q: And the relative viability (NCI-H1395; first compound 2.53 µM)?
A: 0.756

Q: What about the relative viability (NCI-H1395; first compound 8 µM) of the same molecule?
A: 0.838

Q: And the relative viability (NCI-H1437; first compound 0.08 µM)?
A: 0.858

Q: And the relative viability (NCI-H1437; first compound 0.253 µM)?
A: 0.849

Q: What about the relative viability (NCI-H1437; first compound 0.8 µM) of the same molecule?
A: 0.801

Q: And the relative viability (NCI-H1437; first compound 2.53 µM)?
A: 0.636

Q: What about the relative viability (NCI-H1437; first compound 8 µM) of the same molecule?
A: 0.539

Q: And the relative viability (NCI-H1651; first compound 0.08 µM)?
A: 0.967

Q: What about the relative viability (NCI-H1651; first compound 0.253 µM) of the same molecule?
A: 0.734

Q: What about the relative viability (NCI-H1651; first compound 0.8 µM) of the same molecule?
A: 0.934

Q: And the relative viability (NCI-H1651; first compound 2.53 µM)?
A: 0.809

Q: And the relative viability (NCI-H1651; first compound 8 µM)?
A: 0.746

Q: What about the relative viability (NCI-H1755; first compound 0.08 µM) of the same molecule?
A: 1.01

Q: And the relative viability (NCI-H1755; first compound 0.253 µM)?
A: 1.01

Q: And the relative viability (NCI-H1755; first compound 0.8 µM)?
A: 0.951

Q: And the relative viability (NCI-H1755; first compound 2.53 µM)?
A: 1.03

Q: And the relative viability (NCI-H1755; first compound 8 µM)?
A: 0.849

Q: And the relative viability (NCI-H1793; first compound 0.08 µM)?
A: 0.785

Q: And the relative viability (NCI-H1793; first compound 0.253 µM)?
A: 0.641

Q: What about the relative viability (NCI-H1793; first compound 0.8 µM) of the same molecule?
A: 0.593

Q: And the relative viability (NCI-H1793; first compound 2.53 µM)?
A: 0.481

Q: What about the relative viability (NCI-H1793; first compound 8 µM) of the same molecule?
A: 0.654

Q: What about the relative viability (NCI-H1915; first compound 0.08 µM) of the same molecule?
A: 1.03

Q: And the relative viability (NCI-H1915; first compound 0.253 µM)?
A: 0.927

Q: What about the relative viability (NCI-H1915; first compound 0.8 µM) of the same molecule?
A: 0.585

Q: And the relative viability (NCI-H1915; first compound 2.53 µM)?
A: 0.947

Q: And the relative viability (NCI-H1915; first compound 8 µM)?
A: 0.926

Q: What about the relative viability (NCI-H1944; first compound 0.08 µM) of the same molecule?
A: 0.802

Q: And the relative viability (NCI-H1944; first compound 0.253 µM)?
A: 0.76

Q: What about the relative viability (NCI-H1944; first compound 0.8 µM) of the same molecule?
A: 0.62

Q: And the relative viability (NCI-H1944; first compound 2.53 µM)?
A: 0.772

Q: And the relative viability (NCI-H1944; first compound 8 µM)?
A: 0.794

Q: What about the relative viability (NCI-H2085; first compound 0.08 µM) of the same molecule?
A: 0.786

Q: What about the relative viability (NCI-H2085; first compound 0.253 µM) of the same molecule?
A: 0.711

Q: And the relative viability (NCI-H2085; first compound 0.8 µM)?
A: 0.704

Q: And the relative viability (NCI-H2085; first compound 2.53 µM)?
A: 0.704

Q: What about the relative viability (NCI-H2085; first compound 8 µM) of the same molecule?
A: 0.698

Q: And the relative viability (NCI-H2087; first compound 0.08 µM)?
A: 0.999

Q: What about the relative viability (NCI-H2087; first compound 0.253 µM) of the same molecule?
A: 1.1

Q: And the relative viability (NCI-H2087; first compound 0.8 µM)?
A: 0.825

Q: What about the relative viability (NCI-H2087; first compound 2.53 µM) of the same molecule?
A: 1.06

Q: And the relative viability (NCI-H2087; first compound 8 µM)?
A: 0.847

Q: And the relative viability (NCI-H2228; first compound 0.08 µM)?
A: 1.18

Q: What about the relative viability (NCI-H2228; first compound 0.253 µM) of the same molecule?
A: 1.2

Q: And the relative viability (NCI-H2228; first compound 0.8 µM)?
A: 0.924

Q: And the relative viability (NCI-H2228; first compound 2.53 µM)?
A: 0.924

Q: And the relative viability (NCI-H2228; first compound 8 µM)?
A: 0.669

Q: What about the relative viability (NCI-H2347; first compound 0.08 µM) of the same molecule?
A: 0.834

Q: What about the relative viability (NCI-H2347; first compound 0.253 µM) of the same molecule?
A: 0.92

Q: What about the relative viability (NCI-H2347; first compound 0.8 µM) of the same molecule?
A: 0.771

Q: And the relative viability (NCI-H2347; first compound 2.53 µM)?
A: 0.926

Q: And the relative viability (NCI-H2347; first compound 8 µM)?
A: 0.978

Q: What about the relative viability (NCI-H661; first compound 0.08 µM) of the same molecule?
A: 0.46

Q: What about the relative viability (NCI-H661; first compound 0.253 µM) of the same molecule?
A: 0.464

Q: What about the relative viability (NCI-H661; first compound 0.8 µM) of the same molecule?
A: 0.451

Q: What about the relative viability (NCI-H661; first compound 2.53 µM) of the same molecule?
A: 0.413

Q: And the relative viability (NCI-H661; first compound 8 µM)?
A: 0.467

Q: What about the relative viability (PC-3 [JPC-3]; first compound 0.253 µM) of the same molecule?
A: 0.414

Q: What about the relative viability (PC-3 [JPC-3]; first compound 0.8 µM) of the same molecule?
A: 0.409

Q: What about the relative viability (PC-3 [JPC-3]; first compound 2.53 µM) of the same molecule?
A: 0.441

Q: What about the relative viability (PC-3 [JPC-3]; first compound 8 µM) of the same molecule?
A: 0.406

Q: What about the relative viability (SK-LU-1; first compound 0.08 µM) of the same molecule?
A: 0.773

Q: What about the relative viability (SK-LU-1; first compound 0.253 µM) of the same molecule?
A: 0.846

Q: And the relative viability (SK-LU-1; first compound 0.8 µM)?
A: 0.859

Q: And the relative viability (SK-LU-1; first compound 2.53 µM)?
A: 0.826

Q: What about the relative viability (SK-LU-1; first compound 8 µM) of the same molecule?
A: 0.731

Q: What about the relative viability (SK-MES-1; first compound 0.08 µM) of the same molecule?
A: 0.468

Q: And the relative viability (SK-MES-1; first compound 0.253 µM)?
A: 0.445

Q: What about the relative viability (SK-MES-1; first compound 0.8 µM) of the same molecule?
A: 0.451

Q: And the relative viability (SK-MES-1; first compound 2.53 µM)?
A: 0.491

Q: What about the relative viability (SK-MES-1; first compound 8 µM) of the same molecule?
A: 0.507
